Laboratory results from patent US8664220B2, “Polycyclic compounds as lysophosphatidic acid receptor antagonists” (Amira Pharmaceuticals, Inc., priority 2009, dated 2014).

target: T1, human LPA1 (Homo sapiens, UniProt Q92633); test: LPA1 calcium flux assay; format: cell-based; settings: human LPA1 expressing CHO cells, stimulated with 10 nM LPA; read-out: HLPA1 Ca Flux IC50
T1 construct: the full-length cDNA for human LPA1 was obtained by PCR of the reverse transcription reaction; expressed in transfected cells
T1 sequence (Q92633 whole entry): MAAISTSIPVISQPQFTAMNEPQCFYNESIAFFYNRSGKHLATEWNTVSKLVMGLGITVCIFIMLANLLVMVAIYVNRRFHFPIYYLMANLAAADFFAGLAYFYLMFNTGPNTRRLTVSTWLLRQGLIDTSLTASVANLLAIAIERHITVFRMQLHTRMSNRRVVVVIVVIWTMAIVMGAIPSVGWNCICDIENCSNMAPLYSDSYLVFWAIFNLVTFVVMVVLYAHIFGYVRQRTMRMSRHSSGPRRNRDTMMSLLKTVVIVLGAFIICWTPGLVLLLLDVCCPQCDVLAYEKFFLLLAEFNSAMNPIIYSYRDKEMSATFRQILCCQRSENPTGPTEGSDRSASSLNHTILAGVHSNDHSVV
Method: Establishment of a CHO Cell Line Stably Expressing Human LPA1
A 1.1 kb cDNA encoding the human LPA1 receptor was cloned from human lung.
Human lung RNA (Clontech Laboratories, Inc. USA) was reverse transcribed using the RETROscript kit (Ambion, Inc.) and the full-length cDNA for human LPA1 was obtained by PCR of the reverse transcription reaction. The nucleotide sequence of the cloned human LPA1 was determined by sequencing and confirmed to be identical to the published human LPA1 sequence (An et al. Biochem. Biophys. Res. Commun. 231:619 (1997). The cDNA was cloned into the pcDNA5/FRT expression plasmid and transfected in CHO cells using lipofectamine 2000 (Invitrogen Corp., USA). Clones stably expressing human LPA1 were selected using hygromycin and identified as cells that show Ca-influx in response to LPA.
LPA1 and LPA3 Calcium Flux Assays
Human LPA1 or LPA3 expressing CHO cells are seeded at 20,000-45,000 cells per well in a 96-well poly-D-lysine coated plate one or two days before the assay. Prior to the assay, the cells are washed once with PBS and then cultured in serum-free media overnight. On the day of the assay, a calcium indicator dye (Calcium 4, Molecular Devices) in assay buffer (HBSS with Ca^2+ and Mg^2+ and containing 20 mM Hepes and 0.3% fatty-acid free human serum albumin) is added to each well and incubation continued for 1 hour at 37° C. 10 μl of test compounds in 2.5% DMSO are added to the cells and incubation continued at room temperature for 30 minutes. Cells are the stimulated by the addition of 10 nM LPA and intracellular Ca^2+ measured using the Flexstation 3 (Molecular Devices). IC50s are determined using Graphpad prism analysis of drug titration curves.

Row | Structure (SMILES) | IC50 [nM]
1 | Cc1noc(-c2ccc(-c3ccc(C4(C(=O)O)CC4)cc3)cc2)c1C(O)c1cn(Cc2ccccc2)nn1 (single isomer, unassigned) [Compound 1-40, 1-(4′-{4-[(1-Benzyl-1H-[1,2,3]triazol-4-yl)-hydroxy-methyl]-3-methyl-isoxazol-5-yl}-biphenyl-4-yl)-cyclopropanecarboxylic acid] | < 300
2 | Cc1noc(-c2ccc(-c3ccc(C4(C(=O)O)CC4)cc3)cc2)c1C(O)c1cn(Cc2cccc(Cl)c2)nn1 (stereo not drawn) [Compound 1-57, 1-[4′-(4-{[1-(3-Chloro-benzyl)-1H-[1,2,3]triazol-4-yl]-hydroxy-methyl}-3-methyl-isoxazol-5-yl)-biphenyl-4-yl]-cyclopropanecarboxylic acid] | < 300
3 | Cc1noc(-c2ccc(-c3ccc(C4(C(=O)O)CC4)cc3)cc2)c1CN1CCC(c2ccccc2)C1 (stereo not drawn) [Compound 1-17, 1-{4′-[3-Methyl-4-(3-phenyl-pyrrolidin-1-ylmethyl)-isoxazol-5-yl]-biphenyl-4-yl}-cyclopropanecarboxylic acid] | < 300
4 | Cc1noc(-c2ccc(-c3ccc(C4(C(=O)O)CC4)cc3)cc2)c1Cc1nnc(Cc2ccccc2)o1 [Compound 1-29, 1-{4′-[4-(5-Benzyl-[1,3,4]oxadiazol-2-ylmethyl)-3-methyl-isoxazol-5-yl]-biphenyl-4-yl}-cyclopropanecarboxylic acid] | < 300
5 | Cc1noc(-c2ccc(-c3ccc(C4(C(=O)O)CC4)cc3)cc2)c1C(O)c1cn(C(C)c2ccccc2)nn1 (stereo not drawn) [Compound 1-55, 1-[4′-(4-{Hydroxy-[1-(1-phenyl-ethyl)-1H-[1,2,3]triazol-4-yl]-methyl}-3-methyl-isoxazol-5-yl)-biphenyl-4-yl]-cyclopropanecarboxylic acid] | < 300
6 | Cc1noc(-c2ccc(-c3ccc(C4(CC(=O)O)CC4)cc3)cc2)c1NC(C)c1cc(-c2ccccc2)no1 (single isomer, unassigned) [Compound 1-44, [1-(4′-{3-Methyl-4-[1-(3-phenyl-isoxazol-5-yl)-ethylamino]-isoxazol-5-yl}-biphenyl-4-yl)-cyclopropyl]-acetic acid] | < 300
7 | Cc1noc(-c2ccc(-c3ccc(C4(C(=O)O)CC4)cc3)cc2)c1C(O)c1nnc(Cc2cccc(C(F)(F)F)c2)o1 (stereo not drawn) [Compound 1-46, 1-[4′-(4-{Hydroxy-[5-(3-trifluoromethyl-benzyl)-[1,3,4]oxadiazol-2-yl]-methyl}-3-methyl-isoxazol-5-yl)-biphenyl-4-yl]-cyclopropanecarboxylic acid] | 300 to 1000
8 | Cc1noc(-c2ccc(-c3ccc(C4(C(=O)O)CC4)cc3)cc2)c1NC1CCCCC1Cc1ccccc1 (stereo not drawn) [Compound 1-1, 1-{4′-[4-(2-Benzyl-cyclohexylamino)-3-methyl-isoxazol-5-yl]-biphenyl-4-yl}-cyclopropanecarboxylic acid] | < 300
9 | Cc1noc(-c2ccc(-c3ccc(C4(C(=O)O)CC4)cc3)cc2)c1Nc1cccc(Cc2ccccc2)n1 [Compound 1-73, 1-{4′-[4-(6-Benzyl-pyridin-2-ylamino)-3-methyl-isoxazol-5-yl]-biphenyl-4-yl}-cyclopropanecarboxylic acid] | < 300
10 | Cc1noc(-c2ccc(-c3ccc(C4(C(=O)O)CC4)cc3)cc2)c1C(O)c1cccc(-c2ccccc2)c1 (stereo not drawn) [Compound 1-53, 1-{4′-[4-(Biphenyl-3-yl-hydroxy-methyl)-3-methyl-isoxazol-5-yl]-biphenyl-4-yl}-cyclopropanecarboxylic acid] | < 300
11 | Cc1noc(-c2ccc(-c3ccc(C4(C(=O)O)CC4)cc3)cc2)c1Nc1cccc(Cc2ccccc2F)n1 [Compound 1-84, 1-(4′-{4-[6-(2-Fluoro-benzyl)-pyridin-2-ylamino]-3-methyl-isoxazol-5-yl}-biphenyl-4-yl)-cyclopropanecarboxylic acid] | < 300
12 | Cc1noc(-c2ccc(-c3ccc(C4(C(=O)O)CC4)cc3)cc2)c1C(O)c1nnc(Cc2ccccc2)o1 (stereo not drawn) [Compound 1-30, 1-(4′-{4-[(5-Benzyl-[1,3,4]oxadiazol-2-yl)-hydroxy-methyl]-3-methyl-isoxazol-5-yl}-biphenyl-4-yl)-cyclopropanecarboxylic acid] | < 300
13 | Cc1noc(-c2ccc(-c3ccc(C4(CC(=O)O)CC4)cc3)cc2)c1NC(C)c1cc(-c2ccccc2)no1 (single isomer, unassigned) [Compound 1-43, [1-(4′-{3-Methyl-4-[1-(3-phenyl-isoxazol-5-yl)-ethylamino]-isoxazol-5-yl}-biphenyl-4-yl)-cyclopropyl]-acetic acid] | < 300

The remaining lines, values ahead:

Row | IC50 [nM] | Structure (SMILES)
14 | < 300 | Cc1noc(-c2ccc(-c3ccc(C(C)(C)C(=O)O)cc3)cc2)c1Nc1cccc(-c2ccccc2)n1 [Compound 1-133, 2-Methyl-2-{4′-[3-methyl-4-(6-phenyl-pyridin-2-ylamino)-isoxazol-5-yl]-biphenyl-4-yl}-propionic acid]
15 | < 300 | Cc1noc(-c2ccc(-c3ccc(C4(C(=O)O)CC4)cc3)cc2)c1Nc1cncc(-c2cccc(F)c2)c1 [Compound 1-108, 1-(4′-{4-[5-(3-Fluoro-phenyl)-pyridin-3-ylamino]-3-methyl-isoxazol-5-yl}-biphenyl-4-yl)-cyclopropanecarboxylic acid]
16 | < 300 | Cc1noc(-c2ccc(-c3ccc(C4(C(=O)NS(C)(=O)=O)CC4)cc3)cc2)c1Nc1nnc(-c2ccccc2)o1 [Compound 3-4, N-(1-{4′-[3-Methyl-4-(5-phenyl-[1,3,4]oxadiazol-2-ylamino)-isoxazol-5-yl]-biphenyl-4-yl}-cyclopropanecarbonyl)-methanesulfonamide]
17 | < 300 | COc1ncccc1-c1cccc(Nc2c(C)noc2-c2ccc(-c3ccc(C4(C(=O)O)CC4)cc3)cc2)c1 [Compound 1-89, 1-(4′-{4-[3-(2-Methoxy-pyridin-3-yl)-phenylamino]-3-methyl-isoxazol-5-yl}-biphenyl-4-yl)-cyclopropanecarboxylic acid]
18 | < 300 | COc1ccc(-c2cccc(Nc3c(C)noc3-c3ccc(-c4ccc(C5(C(=O)O)CC5)cc4)cc3)n2)cc1 [Compound 1-92, 1-(4′-{4-[6-(4-Methoxy-phenyl)-pyridin-2-ylamino]-3-methyl-isoxazol-5-yl}-biphenyl-4-yl)-cyclopropanecarboxylic acid]
19 | < 300 | Cc1noc(-c2ccc(-c3ccc(C4(C(=O)O)CC4)cc3)cc2)c1Nc1cccc(-c2ccccc2CN(C)C)c1 [Compound 1-117, 1-{4′-[4-(2′-Dimethylaminomethyl-biphenyl-3-ylamino)-3-methyl-isoxazol-5-yl]-biphenyl-4-yl}-cyclopropanecarboxylic acid]
20 | > 50000 | Cc1noc(-c2ccc(-c3ccc(C4(C(=O)O)CC4)cc3)cc2)c1NC(=O)c1cccc(-c2ccccc2CN(C)C)c1 [Compound 1-121, 1-(4′-{4-[(2′-Dimethylaminomethyl-biphenyl-3-carbonyl)-amino]-3-methyl-isoxazol-5-yl}-biphenyl-4-yl)-cyclopropanecarboxylic acid]
21 | < 300 | Cc1noc(-c2ccc(-c3ccc(C4(C(=O)O)CC4)cc3)cc2)c1Nc1cccc(OCCc2ccccc2)n1 [Compound 1-141, 1-{4′-[3-Methyl-4-(6-phenethyloxy-pyridin-2-ylamino)-isoxazol-5-yl]-biphenyl-4-yl}-cyclopropanecarboxylic acid]
22 | < 300 | Cc1noc(-c2ccc(-c3ccc(C4(C(=O)O)CC4)cc3)cc2)c1C(O)c1cncc(-c2ccccc2)c1 (stereo not drawn) [Compound 1-129, 1-(4′-{4-[Hydroxy-(5-phenyl-pyridin-3-yl)-methyl]-3-methyl-isoxazol-5-yl}-biphenyl-4-yl)-cyclopropanecarboxylic acid]
23 | 1000 to 50000 | Cc1noc(-c2ccc(-c3ccc(C(=O)O)cc3)cc2)c1Nc1nnc(-c2ccccc2)o1 [Compound 1-142, 4′-[3-Methyl-4-(5-phenyl-[1,3,4]oxadiazol-2-ylamino)-isoxazol-5-yl]-biphenyl-4-carboxylic acid]
24 | < 300 | Cc1noc(-c2ccc(-c3ccc(C4(C(=O)O)CC4)cc3)cc2)c1Nc1cncc(-c2ccccc2)c1 [Compound 1-107, 1-{4′-[3-Methyl-4-(5-phenyl-pyridin-3-ylamino)-isoxazol-5-yl]-biphenyl-4-yl}-cyclopropanecarboxylic acid]
25 | < 300 | COc1ccc(-c2cccc(Nc3c(C)noc3-c3ccc(-c4ccc(C5(C(=O)O)CC5)cc4)cc3)c2)cn1 [Compound 1-102, 1-(4′-{4-[3-(6-Methoxy-pyridin-3-yl)-phenylamino]-3-methyl-isoxazol-5-yl}-biphenyl-4-yl)-cyclopropanecarboxylic acid]
26 | < 300 | COc1ccc(-c2cccc(Nc3c(C)noc3-c3ccc(-c4ccc(C5(C(=O)O)CC5)cc4)cc3)n2)cn1 [Compound 1-98, 1-{4′-[4-(6′-Methoxy-[2,3′]bipyridinyl-6-ylamino)-3-methyl-isoxazol-5-yl]-biphenyl-4-yl}-cyclopropanecarboxylic acid]
27 | < 300 | Cc1noc(-c2ccc(-c3ccc(C4(C(=O)O)CC4)cc3)cc2)c1Nc1cccc(OCC2CC2)n1 [Compound 1-154, 1-{4′-[4-(6-Cyclopropylmethoxy-pyridin-2-ylamino)-3-methyl-isoxazol-5-yl]-biphenyl-4-yl}-cyclopropanecarboxylic acid]
